T1: β2-GPI (Homo sapiens, UniProt P02749)
T1 construct: β2-GPI was purified from normal human plasma as described in [35] with slight modification; from tissue; host or cells: pooled normal human plasma from healthy subjects
T1 sequence (P02749 20-345): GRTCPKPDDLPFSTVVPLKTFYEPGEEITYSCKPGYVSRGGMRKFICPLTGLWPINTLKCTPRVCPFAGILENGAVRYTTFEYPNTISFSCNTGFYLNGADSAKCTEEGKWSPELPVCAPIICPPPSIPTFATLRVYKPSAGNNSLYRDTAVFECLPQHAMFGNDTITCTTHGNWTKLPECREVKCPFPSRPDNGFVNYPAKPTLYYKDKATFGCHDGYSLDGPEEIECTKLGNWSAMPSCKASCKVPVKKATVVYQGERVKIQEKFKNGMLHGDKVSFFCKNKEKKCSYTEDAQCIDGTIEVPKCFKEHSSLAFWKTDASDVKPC

B1: Ovalbumin: control protein added in Experiment 2 (protein, UniProt P01012 2-386, looked up)
Ovalbumin: GSIGAASMEFCFDVFKELKVHHANENIFYCPIAIMSALAMVYLGAKDSTRTQINKVVRFDKLPGFGDSIEAQCGTSVNVHSSLRDILNQITKPNDVYSFSLASRLYAEERYPILPEYLQCVKELYRGGLEPINFQTAADQARELINSWVESQTNGIIRNVLQPSSVDSQTAMVLVNAIVFKGLWEKAFKDEDTQAMPFRVTEQESKPVQMMYQIGLFRVASMASEKMKILELPFASGTMSMLVLLPDEVSGLEQLESIINFEKLTEWTSSNVMEERKIKVYLPRMKMEEKYNLTSVLMAMGITDVFSSSANLSGISSAESLKISQAVHAAHAEINEAGREVVGSAEAGVDAASVSEEFRADHPFLFCIKHIATNAVLFFGRCVSP

Tests used:
[1] = tested on: APS-2; experiment: ELISA on solid-phase lipid-coated plate: binding of antibodies of APS patient serum APS-2; design: species or system human; conditions: Absorbance, mean ± SD, n = 3; for Binding of protein-dependent oxLig-1 antibody, APS-2: Experiment 2, synthesized oxLig-1-solidified plate, added protein 15 μg/mL
Method: (§1) To eliminate endogenous β2-GPI in some experiments, serum samples were passed through a heparin-Sepharose column. The effluent was dialyzed against PBS and was used for ELISAs.
(§2) Synthesized oxLig-1 (50 μg/mL, 50 μL/well) was adsorbed by evaporation on a polystyrene plate (Immulon 1B; Dynex Technologies Inc.), and the plate was then blocked with 1% BSA. Serum samples (diluted 1:100 with PBS containing 0.3% BSA) were incubated in the wells with β2-GPI (15 μg/mL) or other proteins for one hour at room temperature. Antibody binding was detected with HRP-labeled anti-human IgG. Further steps were performed through a method as described in “anti-β2-GPI ELISA.”
(§3) CL (50 μg/mL, 50 μL/well) was adsorbed on a polystyrene plate (Immulon 1B), and further steps were performed through a method as described in “ELISA for antibodies against a protein-oxLig-1 complex.”

[2] = tested on: APS-1; experiment: ELISA on solid-phase lipid-coated plate: binding of antibodies of APS patient serum APS-1; design: species or system human; conditions: Absorbance, mean ± SD, n = 3; for Binding of protein-dependent oxLig-1 antibody, APS-1: Experiment 2, synthesized oxLig-1-solidified plate, added protein 15 μg/mL
Method: as §1, §2, §3

[3] = tested on: anti-β2-GPI antibodies; experiment: ELISA of the anti-β2-GPI antibodies by use of a ligand-coated plate (results in words); format: binding
Method: (§4) Binding to extracted lipids: A microtiter plate (Immulon 1B, Dynex Technologies Inc.) was coated with lipids extracted from LDLs (50 μg/mL, 50 μL/well) by ethanol evaporation. The wells were blocked with PBS containing 1% BSA for one hour and the wells were incubated with 30 μg/mL of β2-GPI for one hour. Then, β2-GPI binding was detected using Cof-22 and HRP-labeled anti-mouse IgG antibodies. Alternatively, an anti-β2-GPI autoantibody (Cof-22, WB-CAL-1, or EY2C9) was diluted with a 0.3% BSA-containing PBS, and the diluted antibody was added to the coated plate (1.0 μg/mL, 100 μL/well) and incubated with β2-GPI (15 μg/mL) for one hour. The binding of the antibody was detected by an HRP-labeled anti-mouse IgG /or an anti-human IgM. The color was developed with H2O2 and o-phenylenediamine, and OD was measured at 490 nm. Between these steps, extensive washing were done using PBS containing 0.05% Tween 20.
as §2

[4] = tested on: EY2C9; experiment: ELISA on solid-phase lipid (ligand)-coated plate: EY2C9 binding in presence of β2-GPI; design: species or system human; conditions: Absorbance, mean ± SD, n = 3; for Binding of protein-dependent oxLig-1 antibody, EY2C9: Experiment 2, synthesized oxLig-1-solidified plate, added protein 15 μg/mL
Method: as §4, §2, §3

[5] = tested on: WB-CAL-1; experiment: ELISA on solid-phase lipid (ligand)-coated plate: WB-CAL-1 binding in presence of β2-GPI; design: species or system mouse; conditions: Absorbance, mean ± SD, n = 3; for Binding of protein-dependent oxLig-1 antibody, WB-CAL-1: Experiment 2, synthesized oxLig-1-solidified plate, added protein 15 μg/mL
Method: as §4, §2, §3

[6] = tested on: β2-GPI; experiment: ELISA on solid-phase lipid (ligand)-coated plate: β2-GPI binding detected with Cof-22; design: species or system human; conditions: Experiment 2; Absorbance, mean ± SD, n = 3; synthesized oxLig-1-solidified plate, added protein 15 μg/mL
Method: as §4, §2, §3

[7] = tested on: WB-CAL-1; experiment: Optical biosensor (IAsys): binding to solid phase WB-CAL-1 in the presence of β2-GPI; design: species or system mouse; conditions: β2-GPI 10 μg/mL, result in words
From the text: (§5) FIG. 1. Molecular interactions among β2-GPI, LDLs, […] (PLs), and anti-β2-GPI autoantibody, detected by an optical biosensor. • A: LDL (open square) or oxLDL (closed square) binding to solid phase β2-GPI; • B: LDL (open square) or oxLDL (closed square) binding to solid phase WB-CAL-1 in the presence of β2-GPI; • C: DOPE (open circle) or CL (closed circle) binding to solid phase β2-GPI; and • D: DOPE (open circle) or CL (closed circle) binding to solid phase WB-CAL-1 in the presence of β2-GPI.
(§6) Real-time molecular analysis was performed using an optical biosensor, IAsys (product of Affinity Sensors).
(§7) Binding of β2-GPI to LDLs or liposomes: Biotinyl-β2-GPI was immobilized on a biotinyl-cuvette via streptavidin. LDLs or liposomes at various concentrations were placed in the cuvette. Antibodies binding to LDLs or liposomes: The biotinyl-WB-CAL-1 was immobilized on the cuvette. LDLs or liposomes were added at various concentrations in the presence (10 μg/mL) or absence of β2-GPI.

[8] = biological target: T1, β2-GPI; experiment: Optical biosensor (IAsys): binding to solid phase β2-GPI; conditions: result in words
From the text: as §5, §6, §7

[9] = biological target: T1, β2-GPI; experiment: ELISA on solid-phase lipid (ligand)-coated plate: β2-GPI binding detected with Cof-22; conditions: Experiment 1; Absorbance, mean ± SD, n = 3; solid-phase lipid, β2-GPI 15 μg/mL
Method: as §4, §2, §3

[10] = Experiment 1, solid-phase lipid, β2-GPI 15 μg/mL, serum with β2-GPI removed
[11] = Experiment 1, solid-phase lipid, β2-GPI 15 μg/mL

Molecule	Binding of protein-dependent oxLig-1 antibody, APS-2 [1]	Binding of protein-dependent oxLig-1 antibody, APS-1 [2]	antibody binding to solid-phase oxLig-1 provided by added protein ([3]; Exp-2, result in words)	Binding of protein-dependent oxLig-1 antibody, EY2C9 [4]	Binding of protein-dependent oxLig-1 antibody, WB-CAL-1 [5]	Binding of protein-dependent oxLig-1 antibody, Cof-22 [6]	Binding of β2-GPI-dependent aCL, APS-2 [1, 10]	Binding of β2-GPI-dependent aCL, APS-1 [2, 10]	binding to solid phase WB-CAL-1 in the presence of β2-GPI [7]	binding to solid phase β2-GPI [8]	cross-reaction of autoantibodies derived from APS with β2-GPI complexed with lipid ([3]; result in words)	Binding of β2-GPI-dependent aCL, EY2C9 [4, 11]	Binding of β2-GPI-dependent aCL, WB-CAL-1 [5, 11]	Binding of β2-GPI-dependent aCL, Cof-22 [9]
Haptoglobin: protein having sushi domains, without PL binding property	0.015 ± 0.002	0.018 ± 0.011	no antibody binding	0.006 ± 0.001	0.006 ± 0.001	0.049 ± 0.001	–	–	–	–	–	–	–	–
Cardiolipin [CL, reference compound]	–	–	–	–	–	–	1.282 ± 0.041	2.099 ± 0.216	dose-dependent binding	large extent of binding	cross-reacted	1.269 ± 0.014	1.361 ± 0.008	1.132 ± 0.025
CCCCCCCC/C=C\CCCCCCCC(=O)OC[C@H](COP(=O)(O)OCCN)OC(=O)CCCCCCC/C=C\CCCCCCCC [DOPE]	–	–	–	–	–	–	–	–	did not	did not show any specific binding	–	–	–	–
B1	0.016 ± 0.001	0.009 ± 0.004	–	0.004 ± 0.002	0.006 ± 0.002	0.042 ± 0.001	–	–	–	–	–	–	–	–

Source: patent publication US7160733B2, “Ligand specific to β2-glycoprotein I and use thereof” (priority 2001, dated 2007)
